Assays:
[1] = tested on: NCI-H358 cells (KRAS G12C); assay: Cell viability assay, G12C; type: cell-based, human; details: Homo sapiens; NCI-H358, 72 hrs, Cell Counting Kit-8
Description: (§1) The purpose of this cellular assay was to determine the effects of test compounds on the proliferation of human cancer cell lines NCI-H358 (ATCC-CRL5807) cells, AGS (ATCC-CRL-1739) cells, SW620 (ATCC-CCL-227) over a 3-day treatment period by quantifying the amount of NADPH present at endpoint using Cell Counting Kit-8.
(§2) Cells were seeded at 5,000 cells/well (NCI-H358), 2,000 cells/well (AGS) 2,000 cells/well (SW620) in 96-well assay plates (Corning-3699) and incubated overnight. On the day of the assay, diluted compounds were then added in a final concentration of 0.5% DMSO. After 72 hrs incubation, a tenth of the volume of cell counting kit 8 (Dnjindo-CK04) was added into each well. Read the signal (OD450 minus OD650) using EnVision after 2 hrs incubation. IC50 was determined by fitting a 4-parameter sigmoidal concentration response model.

[2] = tested on: AGS cells (KRAS G12D); assay: Cell viability assay, G12D; type: cell-based, human; details: Homo sapiens, 72 hrs, Cell Counting Kit-8
Description: as §1, §2

[3] = tested on: phosphorylation of ERK, KRAS G12V in SW620; assay: pERK inhibition assay, G12V; type: cell-based, human; details: Homo sapiens, SW-620; SW620, 4 hours of incubation
Description: (§3) This assay is to measure the ability of test compounds in inhibiting the phosphorylation of ERK, the downstream signaling of KRAS G12C in NCI-H358 cells, KRAS G12D in AGS cells, and KRAS G12V in SW620. NCI-H358 (ATCC-CRL5807) cells, AGS (ATCC-CRL-1739) cells, SW620 (ATCC-CCL-227) cells were all grown and maintained using RPMI-1640 medium (Thermo Fisher Scientific) with 10% fetal bovine serum and 1% penicillin/streptomycin. On the day prior to compound addition, cells were plated in tissue culture-treated 96 well plates (Corning-3699) at a density of 30,000 cell/well, 20,000 cell/well, 30,000 cell/well for NCI-H358, AGS and SW620 respectively, and allowed for attachment overnight. Diluted compounds were then added in a final concentration of 0.5% DMSO. After 4 hours of incubation, the medium was removed, 100 μL of 4% formaldehyde was added, and the assay plates were incubated at room temperature for 20 minutes. The plates were then washed once with phosphate buffered saline (PBS), and permeabilized with 100 μL of chilled methanol for 10 minutes. Non-specific antibody binding to the plates was blocked using 50 μL 1×BSA blocking buffer (Thermo-37520, 10-fold dilution by Phosphate-Buffered Saline Tween (PBST) for at least 1 hour at room temperature.
(§4) The amount of phosphor-ERK was determined using an antibody specific for phosphorylated form of ERK. Primary antibody (pERK, CST-4370, Cell Signaling Technology) was diluted 1:300 in blocking buffer, with 50 μL aliquoted to each well, and incubated overnight at 4° C. Cells was washed five times for 5 minutes with PBST. Secondary antibody (HRP-linked anti-rabbit IgG, CST-7074, Cell Signaling Technology) was diluted 1:1000 in blocking buffer, and 50 μL was added to each well and incubated 1-2 hrs at room temperature. Cells was washed 5 times for 5 minutes with PBST, 100 μL TMB ELISA substrate (abcam-ab171523) were added and gently shake for 20 minutes. 50 μL stop solution (abcam-ab171529) were added, and then read the signal (OD450) by EnVision.
(§5) IC50 was determined by fitting a 4-parameter sigmoidal concentration response model.

[4] = biological target: T1, KRAS G12C-BRAF complex (Homo sapiens, UniProt P01116+P62937, G12C); assay: KRAS G12C-BRAF NanoBit assay in HEK293 cells; type: cell-based; details: HEK293 stable cell pool, 3 hours of incubation
T1 construct: expressed in transfected cells
T1 sequence (P01116 1-188 isoform P01116-2 G12C): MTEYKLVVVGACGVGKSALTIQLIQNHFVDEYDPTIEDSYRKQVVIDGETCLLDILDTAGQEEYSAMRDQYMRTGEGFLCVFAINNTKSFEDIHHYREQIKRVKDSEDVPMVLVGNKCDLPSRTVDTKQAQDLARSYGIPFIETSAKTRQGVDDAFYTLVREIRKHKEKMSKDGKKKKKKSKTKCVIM
T1 sequence (P62937 whole entry): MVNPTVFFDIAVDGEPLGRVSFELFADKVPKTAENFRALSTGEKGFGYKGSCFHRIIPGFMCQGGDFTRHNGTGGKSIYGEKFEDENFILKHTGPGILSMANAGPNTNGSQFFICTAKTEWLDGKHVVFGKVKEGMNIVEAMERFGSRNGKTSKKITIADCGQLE
Description: This assay is to measure the ability of tested compounds in disruption of the KRAS G12C-BRAF complex at the cellular level, we established the NanoBit cellular assay in mammalian HEK293 (ATCC) cells. HEK293 cells were grown and maintained using DMEM medium (Thermo Fisher Scientific) with 10% fetal bovine serum and 1% penicillin/streptomycin. Both KRAS G12C and BRAF RBD were cloned into the NanoBit vectors ([…] vectors system, Promega) with the orientations SmBit-KRAS G12C and BRAF RBD-LgBit, respectively, and co-transfected into HEK293 cells. Cells were then selected with 100 μg/mL Hygromycin B (10687010, Thermo Fisher) and Blasticidin (5 μg/mL) for 4 weeks to get the stable cell pool. On the day of the assay, 75 nL of compound solution was presented in a 384-well assay plate as a 16-point 3-fold dilution starting from a final concentration of 30 μM in DMSO. Then cells were seeded at 10,000 cells/25 μL/well in a 384-well plate. After 3 hours of incubation, 6 μL of volume of Nano-Glo® Live Cell Substrate (Promega) was added into each well. Monitor luminescence using ultra384 model in Envision at 20 minutes. Compounds that facilitate disruption of the KRAS G12C-BRAF RBD complex were identified as those eliciting a decrease of luminescence relative to DMSO control wells.

[5] = biological target: T1, KRAS G12C-BRAF complex; assay: KRAS-BRAF with CYPA (500 nM) interaction assay (TR-FRET), G12C; type: biochemical; details: 3 hours
Description: (§6) Kras-BRAF with CYPA (500 nM) Interaction Assay In this example, TR-FRET was also used to measure the compound or compound-CYPA dependent disruption of the KRAS G12C-BRAF complex. This protocol was also used to measure disruption of KRAS G12D or KRAS G12V binding to BRAF by a compound of the invention, respectively. […] TR-FRET signal was read on a […] microplate reader (Ex320 nm, Em 665/615 nm). Compounds that facilitate disruption of the KRAS-BRAF complex were identified as those eliciting a decrease in the TR-FRET ratio relative to DMSO control wells.

[6] = biological target: KRAS G12D binding to BRAF (Homo sapiens, UniProt P01116+P62937, G12D); assay: KRAS-BRAF with CYPA (500 nM) interaction assay (TR-FRET), G12D; type: biochemical; details: 3 hours
KRAS G12D binding to BRAF, sequence (P01116 1-188 isoform P01116-2 G12D): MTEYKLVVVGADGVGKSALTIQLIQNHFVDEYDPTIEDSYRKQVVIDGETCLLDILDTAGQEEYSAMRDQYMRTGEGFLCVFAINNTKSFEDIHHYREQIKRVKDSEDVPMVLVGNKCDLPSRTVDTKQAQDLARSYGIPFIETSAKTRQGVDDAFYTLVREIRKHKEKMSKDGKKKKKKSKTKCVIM
KRAS G12D binding to BRAF, sequence (P62937 whole entry): as the sequence (P62937 whole entry) above
Description: as §6

[7] = biological target: KRAS G12V binding to BRAF (Homo sapiens, UniProt P01116+P62937, G12V); assay: KRAS-BRAF with CYPA (500 nM) interaction assay (TR-FRET), G12V; type: biochemical; details: 3 hours
KRAS G12V binding to BRAF, sequence (P01116 1-188 isoform P01116-2 G12V): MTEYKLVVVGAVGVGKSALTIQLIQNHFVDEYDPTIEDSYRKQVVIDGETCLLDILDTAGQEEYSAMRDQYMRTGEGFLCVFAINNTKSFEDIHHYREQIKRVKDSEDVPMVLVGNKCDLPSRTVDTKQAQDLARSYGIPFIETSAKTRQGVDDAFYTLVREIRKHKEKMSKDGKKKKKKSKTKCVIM
KRAS G12V binding to BRAF, sequence (P62937 whole entry): as the sequence (P62937 whole entry) above
Description: as §6

[8] = tested on: phosphorylation of ERK, KRAS G12D in AGS cells; assay: pERK inhibition assay, G12D; type: cell-based, human; details: Homo sapiens, 4 hours of incubation
Description: as §3, §4, §5

[9] = tested on: SW620 cells (KRAS G12V); assay: Cell viability assay, G12V; type: cell-based, human; details: Homo sapiens, SW-620; SW620, 72 hrs, Cell Counting Kit-8
Description: as §1, §2

[10] = tested on: phosphorylation of ERK, KRAS G12C in NCI-H358 cells; assay: pERK inhibition assay, G12C; type: cell-based, human; details: Homo sapiens; NCI-H358, 4 hours of incubation
Description: as §3, §4, §5

| Compound | IC50 [1] | IC50 [2] | IC50 [3] | IC50 [4] | IC50 [5] | IC50 [6] | IC50 [7] | IC50 [8] | IC50 [9] | IC50 [10] |
| --- | --- | --- | --- | --- | --- | --- | --- | --- | --- | --- |
| CO[C@@H](C)c1ncc(N2CCN(C)CC2)cc1-c1c2c3cc(c(F)cc3n1CC(F)(F)F)-c1csc(n1)C[C@H](NC(=O)[C@H](C(C)C)N(C)C(=O)[C@H]1C[C@H](C#CC(F)(F)F)C1)C(=O)N1CCC[C@H](N1)C(=O)OCC(C)(C)C2 (atropisomer, axis not shown; (M)) [Example 1, trans-N-[(1S)-1-[[(7S,13S)-24-fluoro-(20M)-20-[2-[(1S)-1-methoxyethyl]-5-(4-methylpiperazin-1-yl)-3-pyridyl]-17,17-dimethyl-8,14-dioxo-21-(2,2,2-trifluoroethyl)-15-oxa-4-thia-9,21,27,28-tetrazapentacyclo[17.5.2.1^2,5.1^9,13.0^22,26]octacosa-1(25),2,5(28),19,22(26),23-hexaen-7-yl]carbamoyl]-2-methyl-propyl]-N-methyl-3-(3,3,3-trifluoroprop-1-ynyl)cyclobutanecarboxamide] | 0.027 µM | > 10 µM | 0.063 µM | 0.081 µM | 3.35 µM | > 10 µM | > 10 µM | 1.1 µM | 0.04 µM | 0.035 µM |
| CO[C@@H](C)c1ncc(N2CCN(C)CC2)cc1-c1c2c3cc(c(F)cc3n1CC(F)(F)F)-c1csc(n1)C[C@H](NC(=O)[C@H](C(C)C)N(C)C(=O)N1CC(C#CC(F)(F)F)C1)C(=O)N1CCC[C@H](N1)C(=O)OCC(C)(C)C2 (atropisomer, axis not shown; (M)) [Example 2, N-[(1S)-1-[[(7S,13S)-24-fluoro-(20M)-20-[2-[(1S)-1-methoxyethyl]-5-(4-methylpiperazin-1-yl)-3-pyridyl]-17,17-dimethyl-8,14-dioxo-21-(2,2,2-trifluoroethyl)-15-oxa-4-thia-9,21,27,28-tetrazapentacyclo[17.5.2.1^2,5.1^9,13.0^22,26]octacosa-1(25),2,5(28),19,22(26),23-hexaen-7-yl]carbamoyl]-2-methyl-propyl]-N-methyl-3-(3,3,3-trifluoroprop-1-ynyl)azetidine-1-carboxamide] | 0.002 µM | 0.02 µM | 0.007 µM | 0.018 µM | 1.79 µM | > 10 µM | 6.74 µM | – | 0.01 µM | 0.013 µM |
| CO[C@@H](C)c1ncc(N2CCN(C)CC2)cc1-c1c2c3cc(c(F)cc3n1CC(F)(F)F)-c1csc(n1)C[C@H](NC(=O)[C@H](C(C)C)N(C)C(=O)c1ccc(C#CC(F)(F)F)cc1)C(=O)N1CCC[C@H](N1)C(=O)OCC(C)(C)C2 (atropisomer, axis not shown; (M)) [Example 4, N-[(1S)-1-[[(7S,13S)-24-fluoro-(20M)-20-[2-[(1S)-1-methoxyethyl]-5-(4-methylpiperazin-1-yl)-3-pyridyl]-17,17-dimethyl-8,14-dioxo-21-(2,2,2-trifluoroethyl)-15-oxa-4-thia-9,21,27,28-tetrazapentacyclo[17.5.2.1^2,5.1^9,13.0^22,26]octacosa-1(25),2,5(28),19,22(26),23-hexaen-7-yl]carbamoyl]-2-methyl-propyl]-N-methyl-4-(3,3,3-trifluoroprop-1-ynyl)benzamide] | 0.123 µM | 0.781 µM | 0.006 µM | 0.219 µM | 0.43 µM | 0.142 µM | > 10 µM | 0.509 µM | 0.041 µM | 0.063 µM |
| CCn1c(-c2cc(N3CCN(C)CC3)cnc2[C@H](C)OC)c2c3cc(c(F)cc31)-c1csc(n1)C[C@H](NC(=O)[C@H](C(C)C)N(C)C(=O)[C@H]1C[C@@H](C#CC(F)(F)F)C1)C(=O)N1CCC[C@H](N1)C(=O)OCC(C)(C)C2 (atropisomer, axis not shown; (M)) [Example 6, cis-N-[(1S)-1-[[(7S,13S)-21-ethyl-24-fluoro-(20M)-20-[2-[(1S)-1-methoxyethyl]-5-(4-methylpiperazin-1-yl)-3-pyridyl]-17,17-dimethyl-8,14-dioxo-15-oxa-4-thia-9,21,27,28-tetrazapentacyclo[17.5.2.1^2,5.1^9,13.0^22,26]octacosa-1(25),2,5(28),19,22(26),23-hexaen-7-yl]carbamoyl]-2-methyl-propyl]-N-methyl-3-(3,3,3-trifluoroprop-1-ynyl)cyclobutanecarboxamide] | < 0.001 µM | 2.84 µM | 0.008 µM | 0.029 µM | 0.021 µM | > 10 µM | > 10 µM | – | 4.73 µM | 0.002 µM |
| CO[C@@H](C)c1ncc(N2CCN(CC(F)(F)F)CC2)cc1-c1c2c3cc(c(F)cc3n1CC(F)(F)F)-c1csc(n1)C[C@H](NC(=O)[C@H](C(C)C)N(C)C(=O)[C@H]1C[C@@H](C#CC(F)(F)F)C1)C(=O)N1CCC[C@H](N1)C(=O)OCC(C)(C)C2 (atropisomer, axis not shown; (M)) [Example 7, cis-N-[(1S)-1-[[(7S,13S)-24-fluoro-(20M)-20-[2-[(1S)-1-methoxyethyl]-5-[4-(2,2,2-trifluoroethyl)piperazin-1-yl]-3-pyridyl]-17,17-dimethyl-8,14-dioxo-21-(2,2,2-trifluoroethyl)-15-oxa-4-thia-9,21,27,28-tetrazapentacyclo[17.5.2.1^2,5.1^9,13.0^22,26]octacosa-1(25),2,5(28),19,22(26),23-hexaen-7-yl]carbamoyl]-2-methyl-propyl]-N-methyl-3-(3,3,3-trifluoroprop-1-ynyl)cyclobutanecarboxamide] | 0.023 µM | > 5 µM | 0.099 µM | 0.335 µM | > 10 µM | > 10 µM | > 10 µM | – | > 5 µM | 1.1 µM |

— US20250257075A1, “MACROCYCLIC INHIBITORS OF KRAS FOR THE TREATMENT OF CANCER” (Hoffmann-La Roche Inc., priority 2022, published 2025)
